Biological target: PKM2 (Homo sapiens, UniProt P14618)
Experiment: PKM2 Assay (activation, LDH-coupled, absorbance at 340 nm)
Type: biochemical
Conditions: Table 5
Procedure, shortened: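 Human PKM2 (50 ng/well) was preincubated with compound and coupling mix for 30 min at 4 °C without ADP. Reactions were then started with ADP (0.7 mM) alongside PEP 0.15 mM, NADH 180 μM and LDH, in Tris pH 7.5/KCl/MgCl2/DTT/BSA buffer. A340 was followed at 25 °C and activation reported as AC50.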

PKM2, sequence (P14618 whole entry): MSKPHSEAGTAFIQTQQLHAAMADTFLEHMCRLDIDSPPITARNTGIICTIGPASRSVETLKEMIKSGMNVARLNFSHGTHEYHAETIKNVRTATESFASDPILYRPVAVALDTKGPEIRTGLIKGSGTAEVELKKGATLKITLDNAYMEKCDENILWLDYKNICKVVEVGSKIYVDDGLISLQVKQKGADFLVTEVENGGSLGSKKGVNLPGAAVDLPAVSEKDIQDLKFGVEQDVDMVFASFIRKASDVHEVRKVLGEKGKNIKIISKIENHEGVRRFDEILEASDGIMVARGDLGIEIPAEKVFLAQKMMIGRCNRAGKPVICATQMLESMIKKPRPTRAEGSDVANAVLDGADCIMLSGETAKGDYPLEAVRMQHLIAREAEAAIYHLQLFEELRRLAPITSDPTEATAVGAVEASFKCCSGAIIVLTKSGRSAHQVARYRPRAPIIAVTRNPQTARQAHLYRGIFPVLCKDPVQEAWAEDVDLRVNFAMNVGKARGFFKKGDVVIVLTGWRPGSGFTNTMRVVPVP

SMILES | AC50
COc1ccncc1CN1CCN(C(=O)c2ccc(NS(=O)(=O)c3cccc4cccnc34)c(OC(F)(F)F)c2)CC1 [Compound 305, N-(4-(4-((4-methoxypyridin-3-yl)methyl)piperazine-1-carbonyl)-2-(trifluoromethoxy)phenyl)quinoline-8-sulfonamide] | 0.1 to 0.5 µM
O=C(c1ccc(NS(=O)(=O)c2cccc3cccnc23)c(OC(F)(F)F)c1)N1CCN(Cc2cccc(Cl)c2Cl)CC1 [Compound 306, N-(4-(4-(2,3-dichlorobenzyl)piperazine-1-carbonyl)-2-(trifluoromethoxy)phenyl)quinoline-8-sulfonamide] | 0.5 to 1 µM
O=C(c1ccc(NS(=O)(=O)c2cccc3cccnc23)c(OC(F)(F)F)c1)N1CCN(Cc2ccncc2Cl)CC1 [Compound 307, N-(4-(4-((3-chloropyridin-4-yl)methyl)piperazine-1-carbonyl)-2-(trifluoromethoxy)phenyl)quinoline-8-sulfonamide] | 0.1 to 0.5 µM
COc1cccc(F)c1CN1CCN(C(=O)c2ccc(NS(=O)(=O)c3cccc4cccnc34)c(OC(F)(F)F)c2)CC1 [Compound 308, N-(4-(4-(2-fluoro-6-methoxybenzyl)piperazine-1-carbonyl)-2-(trifluoromethoxy)phenyl)quinoline-8-sulfonamide] | 0.5 to 1 µM
O=C(c1ccc(NS(=O)(=O)c2cccc3cccnc23)c(OC(F)(F)F)c1)N1CCN(Cc2ncccc2C(F)(F)F)CC1 [Compound 309, N-(2-(trifluoromethoxy)-4-(4-((3-(trifluoromethyl)pyridin-2-yl)methyl)piperazine-1-carbonyl)phenyl)quinoline-8-sulfonamide] | 1 to 20 µM
COc1ccc(CN2CCN(C(=O)c3ccc(NS(=O)(=O)c4cccc5cccnc45)c(OC(F)(F)F)c3)CC2)cc1 [Compound 310, N-(4-(4-(4-methoxybenzyl)piperazine-1-carbonyl)-2-(trifluoromethoxy)phenyl)quinoline-8-sulfonamide] | 0.1 to 0.5 µM
O=C(O[C@@H]1CCOC1)N1CCN(C(=O)c2ccc(NS(=O)(=O)c3cccc4cccnc34)c(OC(F)(F)F)c2)CC1 [Compound 311] | 1 to 20 µM
O=C(OCCC1CCCC1)N1CCN(C(=O)c2ccc(NS(=O)(=O)c3cccc4cccnc34)c(OC(F)(F)F)c2)CC1 [Compound 312, 2-cyclopentylethyl-4-(4-(quinoline-8-sulfonamido)-3-(trifluoromethoxy)benzoyl)piperazine-1-carboxylate] | 0.5 to 1 µM
O=C(c1ccc(NS(=O)(=O)c2cccc3cccnc23)cc1)N1CCN(C(=O)c2cnns2)CC1 [Compound 313, N-(4-(4-(1,2,3-thiadiazole-5-carbonyl)piperazine-1-carbonyl)phenyl)quinoline-8-sulfonamide] | < 0.1 µM
O=C(OC1CCOCC1)N1CCN(C(=O)c2ccc(NS(=O)(=O)c3cccc4cccnc34)c(OC(F)(F)F)c2)CC1 [Compound 314, tetrahydro-2H-pyran-4-yl-4-(4-(quinoline-8-sulfonamido)-3-(trifluoromethoxy)benzoyl)piperazine-1-carboxylate] | 1 to 20 µM
COc1cc(C(=O)N2CCN(C(=O)Oc3ccccn3)CC2)ccc1NS(=O)(=O)c1cccc2cccnc12 [Compound 315, Pyridin-2-yl 4-(3-methoxy-4-(quinoline-8-sulfonamido)benzoyl)piperazine-1-carboxylate] | 0.1 to 0.5 µM
O=C(OCC1CCCO1)N1CCN(C(=O)c2ccc(NS(=O)(=O)c3cccc4cccnc34)c(OC(F)(F)F)c2)CC1 (stereo not shown) [Compound 316, (tetrahydrofuran-2-yl)methyl-4-(4-(quinoline-8-sulfonamido)-3-(trifluoromethoxy)benzoyl)piperazine-1-carboxylate] | 1 to 20 µM
O=C(c1ccc(NS(=O)(=O)c2cccc3cccnc23)cc1)N1CCN(C(=O)c2ccncc2F)CC1 [Compound 317, N-(4-(4-(3-fluoroisonicotinoyl)piperazine-1-carbonyl)phenyl)quinoline-8-sulfonamide] | < 0.1 µM
COc1cc(C(=O)N2CCN(C(=O)c3cccc(F)c3F)CC2)ccc1NS(=O)(=O)c1cccc2cccnc12 [Compound 318, N-(4-(4-(2,3-difluorobenzoyl)piperazine-1-carbonyl)-2-methoxyphenyl)quinoline-8-sulfonamide] | 0.1 to 0.5 µM
COc1cc(C(=O)N2CCN(C(=O)c3ccc(F)c(F)c3)CC2)ccc1NS(=O)(=O)c1cccc2cccnc12 [Compound 319, N-(4-(4-(3,4-difluorobenzoyl)piperazine-1-carbonyl)-2-methoxyphenyl)quinoline-8-sulfonamide] | 0.1 to 0.5 µM
COc1cc(C(=O)N2CCN(C(=O)c3cccc(OC)c3F)CC2)ccc1NS(=O)(=O)c1cccc2cccnc12 [Compound 320, N-(4-(4-(2-fluoro-3-methoxybenzoyl)piperazine-1-carbonyl)-2-methoxyphenyl)quinoline-8-sulfonamide] | 0.1 to 0.5 µM
COc1cc(C(=O)N2CCN(C(=O)c3csnn3)CC2)ccc1NS(=O)(=O)c1cccc2cccnc12 [Compound 321, N-(4-(4-(1,2,3-thiadiazole-4-carbonyl)piperazine-1-carbonyl)-2-methoxyphenyl)quinoline-8-sulfonamide] | 0.1 to 0.5 µM

SMILES | AC50
COc1cc(C(=O)N2CCN(C(=O)c3cscn3)CC2)ccc1NS(=O)(=O)c1cccc2cccnc12 [Compound 322, N-(2-methoxy-4-(4-(thiazole-4-carbonyl)piperazine-1-carbonyl)phenyl)quinoline-8-sulfonamide] | 0.1 to 0.5 µM
O=C(c1cccnc1)N1CCN(C(=O)c2ccc(NS(=O)(=O)c3cccc4cccnc34)c(OC(F)(F)F)c2)CC1 [Compound 323, N-(4-(4-nicotinoylpiperazine-1-carbonyl)-2-(trifluoromethoxy)phenyl)quinoline-8-sulfonamide] | 0.5 to 1 µM
O=C(c1ccc(NS(=O)(=O)c2cccc3cccnc23)c(OC(F)(F)F)c1)N1CCN(C(=O)c2cscn2)CC1 [Compound 324, N-(4-(4-(thiazole-4-carbonyl)piperazine-1-carbonyl)-2-(trifluoromethoxy)phenyl)quinoline-8-sulfonamide] | 0.1 to 0.5 µM
Cc1cnc(C(=O)N2CCN(C(=O)c3ccc(NS(=O)(=O)c4cccc5cccnc45)c(OC(F)(F)F)c3)CC2)cn1 [Compound 325] | 1 to 20 µM
O=C(c1cc(F)cc(F)c1)N1CCN(C(=O)c2ccc(NS(=O)(=O)c3cccc4cccnc34)c(OC(F)(F)F)c2)CC1 [Compound 326, N-(4-(4-(3,5-difluorobenzoyl)piperazine-1-carbonyl)-2-(trifluoromethoxy)phenyl)quinoline-8-sulfonamide] | 0.1 to 0.5 µM
O=C(c1ccc(NS(=O)(=O)c2cccc3cccnc23)c(OC(F)(F)F)c1)N1CCN(C(=O)c2cocn2)CC1 [Compound 327] | 0.5 to 1 µM
O=C(c1ccc(NS(=O)(=O)c2cccc3cccnc23)c(C(F)(F)F)c1)N1CCN(Cc2ccncc2)CC1 [Compound 328, N-(4-(4-(pyridin-4-ylmethyl)piperazine-1-carbonyl)-2-(trifluoromethyl)phenyl)quinoline-8-sulfonamide] | 1 to 20 µM
O=C(c1ccc(NS(=O)(=O)c2cccc3cccnc23)c(C(F)(F)F)c1)N1CCN(CC2CCCO2)CC1 (stereo not shown) [Compound 329, N-(4-(4-((tetrahydrofuran-2-yl)methyl)piperazine-1-carbonyl)-2-(trifluoromethyl)phenyl)quinoline-8-sulfonamide] | 1 to 20 µM
O=C(c1ccc(NS(=O)(=O)c2cccc3cccnc23)cc1)N1CCN(C2(c3ccccc3)CC2)CC1 [Compound 330, N-(4-(4-(1-phenylcyclopropyl)piperazine-1-carbonyl)phenyl)quinoline-8-sulfonamide] | < 0.1 µM
CC(c1cc(F)cc(F)c1)N1CCN(C(=O)c2ccc(NS(=O)(=O)c3cccc4cccnc34)cc2)CC1 (stereo not shown) [Compound 331, N-(4-(4-(1-(3,5-difluorophenyl)ethyl)piperazine-1-carbonyl)phenyl)quinoline-8-sulfonamide] | < 0.1 µM
CC(c1ccc(F)c(Cl)c1)N1CCN(C(=O)c2ccc(NS(=O)(=O)c3cccc4cccnc34)cc2)CC1 (stereo not shown) [Compound 332, N-(4-(4-(1-(3-chloro-4-fluorophenyl)ethyl)piperazine-1-carbonyl)phenyl)quinoline-8-sulfonamide] | < 0.1 µM
COc1ccc(CN2CCN(C(=O)c3ccc(NS(=O)(=O)c4cccc5cccnc45)c(OC(F)(F)F)c3)CC2)c(OC)c1 [Compound 333, N-(4-(4-(2,4-dimethoxybenzyl)piperazine-1-carbonyl)-2-(trifluoromethoxy)phenyl)quinoline-8-sulfonamide] | 0.5 to 1 µM
O=C(c1ccc(NS(=O)(=O)c2cccc3cccnc23)c(OC(F)(F)F)c1)N1CCN(Cc2ccc(C(F)(F)F)cc2)CC1 [Compound 334, N-(2-(trifluoromethoxy)-4-(4-(4-(trifluoromethyl)benzyl)piperazine-1-carbonyl)phenyl)quinoline-8-sulfonamide] | 0.1 to 0.5 µM
O=C(c1ccc(NS(=O)(=O)c2cccc3cccnc23)c(OC(F)(F)F)c1)N1CCN(Cc2ccccc2F)CC1 [Compound 335, N-(4-(4-(2-fluorobenzyl)piperazine-1-carbonyl)-2-(trifluoromethoxy)phenyl)quinoline-8-sulfonamide] | 0.1 to 0.5 µM
O=C(c1ccc(NS(=O)(=O)c2cccc3cccnc23)c(OC(F)(F)F)c1)N1CCN(CC2CCCC2)CC1 [Compound 336, N-(4-(4-(cyclopentylmethyl)piperazine-1-carbonyl)-2-(trifluoromethoxy)phenyl)quinoline-8-sulfonamide] | 0.5 to 1 µM
O=C(c1ccc(NS(=O)(=O)c2cccc3cccnc23)c(OC(F)(F)F)c1)N1CCN(Cc2ccc(F)cc2)CC1 [Compound 337, N-(4-(4-(4-fluorobenzyl)piperazine-1-carbonyl)-2-(trifluoromethoxy)phenyl)quinoline-8-sulfonamide] | 1 to 20 µM
O=C(c1ccc(NS(=O)(=O)c2cccc3cccnc23)c(OC(F)(F)F)c1)N1CCN(Cc2ccc(Cl)cc2)CC1 [Compound 338, N-(4-(4-(4-chlorobenzyl)piperazine-1-carbonyl)-2-(trifluoromethoxy)phenyl)quinoline-8-sulfonamide] | 0.1 to 0.5 µM
